Results from US4366311A, “Novel dianemycin derivative” (Taisho Pharmaceutical Co., Ltd., priority 1980, dated 1982).
Where a name gives a salt, the structure may show the parent alone.

What was measured:
[1] = Acute toxicity, LD50 in mice (Test Example 3); set-up: species or system mice (ddY strain, 4-week old); conditions: mouse, in vivo, ip; ddY male mice, intraperitoneal, mortality over 7 consecutive days; 5% gum arabic in saline
Experimental: Compound I sodium salt and the control drug of dianemycin sodium salt were respectively suspended in a 5% solution of gum arabic in saline solution.
Two groups of 7 ddY strain male mice (4-week old) were intraperitoneally injected with each of the above-described drug suspension. LD50 values (mg/kg) of the compounds were determined from the total mortality per group for 7 consecutive days to examine the acute toxicity.

macrophage = experiment: Cytotoxic effect on macrophage, observation under an optical microscope; format: cell-based, ICR mice; conditions: 0.1 ppm compound in medium
Experimental: (§1) Normal ICR mice were intraperitoneally injected with 1 ml of a sterilized 0.2% solution of glycogen in saline solution and, after 5 days, intraperitoneally injected with 5 ml of a Hank's solution containing heparin to collect macrophage.
(§2) After centrifugation and washing, the macrophage was diluted with a medium of TC-199 containing 20% of calf serum so that the resulting solution contained about 10^6 cells/ml of macrophage. 1 ml of this suspension was pipetted into a cultivation Petri dish containing circular cover glass of 1.5 cm in diameter, followed by cultivation for 24 hours in an incubator containing 5% of carbon dioxide.
(§3) 5×10^5 toxiplasma RH strain collected on the 2nd day after intraperitoneal infection of mice were brought into contact with the thus cultivated macrophage at 37° C. for about 1 hour, and non-infectingtoxiplasma RH strain were washed away using the same medium followed by adding thereto the same medium.
(§4) A drug-containing group was prepared by adding compound I sodium salt to the medium so that the final concentration of the compound became 0.1 ppm.
(§5) Medical effects were evaluated as follows; After cultivation at 37° C. for 48 hours, May-Grunwald/Giemsa double straining was conducted to determine the percentage of macrophage cells containing therein 1 to 5 toxoplasma or 6 or more toxoplasma, thus the infected control group was compared with the drug-added group.

[2] = test system: Staphylococcus aureus FDA 209 P; experiment: MIC, antibacterial effects (Test Example 2); format: cell-based; conditions: FDA209, infusion agar medium, read-out: MIC (Minimum Inhibitory Concentration)
Experimental: (§6) MIC (Minimum Inhibitory Concentration) was measured according to the method specified by the Chemotherapeutic Society using a heat infusion agar medium containing compound I sodium salt, to examine antibacterial effects of the compound.

[3] = test system: Escherichia coli NIHJ C-2; experiment: MIC, antibacterial effects (Test Example 2); format: cell-based; conditions: NIHJC2, infusion agar medium, read-out: MIC (Minimum Inhibitory Concentration)
Experimental: as §6

[4] = test system: Streptococcus faecalis ATCC 8043; experiment: MIC, antibacterial effects (Test Example 2); format: cell-based; conditions: Enterococcus faecalis, ATCC8043, infusion agar medium, read-out: MIC (Minimum Inhibitory Concentration)
Experimental: as §6

[5] = test system: Staphylococcus epidermidis TPR-25; experiment: MIC, antibacterial effects (Test Example 2); format: cell-based; conditions: TPR25, infusion agar medium, read-out: MIC (Minimum Inhibitory Concentration)
Experimental: as §6

[6] = test system: Bacillus subtilis ATCC 6633; experiment: MIC, antibacterial effects (Test Example 2); format: cell-based; conditions: ATCC6633, infusion agar medium, read-out: MIC (Minimum Inhibitory Concentration)
Experimental: as §6

[7] = test system: Staphylococcus epidermidis IID 866; experiment: MIC, antibacterial effects (Test Example 2); format: cell-based; conditions: IID866, infusion agar medium, read-out: MIC (Minimum Inhibitory Concentration)
Experimental: as §6

[8] = test system: Staphylococcus aureus TPR-23; experiment: MIC, antibacterial effects (Test Example 2); format: cell-based; conditions: TPR23, infusion agar medium, read-out: MIC (Minimum Inhibitory Concentration)
Experimental: as §6

Bacillus licheniformis = experiment: MIC, antibacterial effects (Test Example 2); format: cell-based; conditions: infusion agar medium, read-out: MIC (Minimum Inhibitory Concentration)
Experimental: as §6

[9] = test system: Staphylococcus aureus Smith; experiment: MIC, antibacterial effects (Test Example 2); format: cell-based; conditions: infusion agar medium, read-out: MIC (Minimum Inhibitory Concentration)
Experimental: as §6

toxoplasma RH strain = experiment: Anti-toxoplasma effect in cultivated mouse macrophage (Test Example 1); format: cell-based, in macrophage of normal ICR mice; conditions: 0.1 ppm compound in medium, 37° C., 48 hours
Experimental: as §1, §2, §3, §4, §5

COC1CCC(OC2CC(C3(C)CCC4(CC(O)C(C)C(C(C)/C=C(\C)C(=O)C(C)CC(C)C(=O)O)O4)O3)OC3(OC(C4OC(O)(CO)C(C)CC4C)CC3C)C2C)OC1C (centres unmarked) [Dianemycin Sodium Salt, reference compound]
LD50 at 168 h [1]: 7.2 mg/kg

C/C(=C\C(C)C1OC2(CCC(C)(C3CC(O)C(C)C4(OC(C5OC(O)(CO)C(C)CC5C)CC4C)O3)O2)CC(O)C1C)C(=O)C(C)CC(C)C(=O)O (centres unmarked) [Compound I sodium salt]
cytotoxic effect (macrophage): no cytotoxic effect
MIC [2]: 25 µg/mL
MIC [3]: > 200 µg/mL
MIC [4]: 50 µg/mL
MIC [5]: 50 µg/mL
MIC [6]: 25 µg/mL
MIC [7]: 50 µg/mL
MIC [8]: 50 µg/mL
MIC (Bacillus licheniformis): 12.5 µg/mL
MIC [9]: 50 µg/mL
Percentage of Toxoplasma-infected Macrophage, 1 to 5 Toxoplasma/cell (toxoplasma RH strain; infected control group 30.8): 0%
Percentage of Toxoplasma-infected Macrophage, 6 or more Toxoplasma/cell (toxoplasma RH strain; infected control group 31.8): 0%
LD50 at 168 h [1]: 191 mg/kg
